As a reminder, the EC50 is the midpoint of the concentration-response curve.

Sequence of RIPK1 (Q13546 1-327): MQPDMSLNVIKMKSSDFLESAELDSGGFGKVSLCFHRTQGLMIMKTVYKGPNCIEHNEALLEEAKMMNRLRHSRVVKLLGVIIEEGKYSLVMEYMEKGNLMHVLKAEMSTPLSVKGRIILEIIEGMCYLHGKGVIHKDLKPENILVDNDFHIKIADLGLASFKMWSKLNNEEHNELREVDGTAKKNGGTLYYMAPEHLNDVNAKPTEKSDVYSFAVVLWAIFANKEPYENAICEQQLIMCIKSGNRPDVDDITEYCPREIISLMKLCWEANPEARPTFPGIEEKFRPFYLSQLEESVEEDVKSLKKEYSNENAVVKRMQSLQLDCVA

The target of this assay is RIPK1 (Homo sapiens (Human), UniProt Q13546). The assay is described as follows: RIPK1-ADP-Glo Enzymatic Assay. It counts as biochemical. Conditions: recombinant GST-RIPK1 kinase domain (residues 1-327), 25 nM, ten-point titration, 30 minutes pre-incubation. How it is done:
The enzymatic activity of RIPK1 was measured using an assay derived from ADP-Glo kit (™Promega), which provides a luminescent-based ADP detection system. Specifically, the ADP generated by RIPK1 kinase was proportionally detected as luminescent signals in a homogenous fashion. In this context, the assessment of the inhibitory effect of small molecules (EC50) was measured by the effectiveness of the compounds to inhibit the ATP to ADP conversion by RIPK1.
In this assay, the potency (EC50) of each compound was determined from a ten-point (1:3 serial dilution: top compound concentration of 100000 nM) titration curve using the following outlined procedure. To each well of a white ProxiPlus 384 well-plate, 30 nL of compound (1% DMSO in final assay volume of 3 μL) was dispensed, followed by the addition of 2 μL of 1x assay buffer (25 mM Hepes 7.3, 20 mM MgCl2, 50 mM NaCl, 1 mM DTT, 0.005% Tween20, and 0.02% BSA) containing 37.5 nM of GST-RIPK1 (recombinant GST-RIPK1 kinase domain (residues 1-327) enzyme produced from baculovirus-transfected Sf21 cells: MW=62 kDa). Plates were placed in an ambient temperature humidified chamber for a 30 minutes pre-incubation with compound. Subsequently, each reaction was initiated by the addition of 1 μL 1× assay buffer containing […] dephosphorylated-MBP substrate. The final reaction in each well of 3 μL consists of 25 nM of GST-RIPK1, 300 µM ATP, and 3 μM dephosphorylated-MBP. Kinase reactions were allowed to proceed for 150 minutes prior to adding ADP-Glo reagents per Promega's outlined kit protocol. Dose-response curves were generated by plotting percent effect (% product conversion: Y-axis) vs. Logio compound concentrations (X-axis). EC50 values were calculated using a non-linear regression, four-parameters sigmoidal dose-response model and are provided for example compounds of the invention (labeled “RIPK1 EC50 (nM)” throughout the above examples).
On the technique in general: ADP-Glo first removes unused ATP, then detects ADP through luciferase.
As for `O=C1N2[C@H](c3cc(F)cc(F)c3)CCN2CC12CCN(c1ncc(OC(F)F)cn1)CC2` [Example 1.25, (S)-1-(5-(difluoromethoxy)pyrimidin-2-yl)-7′-(3,5-difluorophenyl)dihydro-1′H,3′H,5′H-spiro[piperidine-4,2′-pyrazolo[1,2-a]pyrazol]-1′-one], the EC50 was found to be 38 nM.
The result for `Cc1nc(N2CCC3(CC2)CN2CC[C@@H](c4cc(F)cc(F)c4)N2C3=O)ncc1OC(F)F` [Example 1.26, (S)-1-(5-(difluoromethoxy)-4-methylpyrimidin-2-yl)-7′-(3,5-difluorophenyl)dihydro-1′H,3′H,5′H-spiro [piperidine-4,2′-pyrazolo[1,2-a]pyrazol]-1′-one] reads 15 nM; that for `Cc1ccnc(N2CCC3(CC2)CN2CC[C@@H](c4cc(F)cc(F)c4)N2C3=O)n1` [Example 1.27, (S)-7′-(3,5-difluorophenyl)-1-(4-methylpyrimidin-2-yl)dihydro-1′H,3′H,5′H-spiro[piperidine-4,2′-pyrazolo[1,2-a]pyrazol]-1′-one], 637 nM.
On to `CCc1cnc(N2CCC3(CC2)CN2CC[C@@H](c4cc(F)cc(F)c4)N2C3=O)nc1` [Example 1.28, (S)-7′-(3,5-difluorophenyl)-1-(5-ethylpyrimidin-2-yl)dihydro-1′H,3′H,5′H-spiro[piperidine-4,2′-pyrazolo[1,2-a]pyrazol]-1′-one], for which the EC50 was found to be 409 nM.
Consider `O=C1N2[C@H](c3cc(F)cc(F)c3)CCN2CC12CCN(c1ncc(F)cn1)CC2` [Example 1.29, (S)-7′-(3,5-difluorophenyl)-1-(5-fluoropyrimidin-2-yl)dihydro-1′H,3′H,5′H-spiro[piperidine-4,2′-pyrazolo[1,2-a]pyrazol]-1′-one], for which the EC50 turned out to be 84 nM.
Next, `CN(C)c1nc(Cl)cc(N2CCC3(CC2)CN2CC[C@@H](c4cc(F)cc(F)c4)N2C3=O)n1` [Example 1.30, (S)-1-(6-chloro-2-(dimethylamino)pyrimidin-4-yl)-7′-(3,5-difluorophenyl)dihydro-1′H,3′H,5′H-spiro[piperidine-4,2′-pyrazolo[1,2-a]pyrazol]-1′-one]: 110 nM.
Turning to `COc1nc(OC)nc(N2CCC3(CC2)CN2CC[C@@H](c4cc(F)cc(F)c4)N2C3=O)n1` [Example 1.31, (S)-7′-(3,5-difluorophenyl)-1-(4,6-dimethoxy-1,3,5-triazin-2-yl)dihydro-1′H,3′H,5′H-spiro [piperidine-4,2′-pyrazolo[1,2-a]pyrazol]-1′-one], the EC50 worked out at 285 nM.
For the molecule `O=C1N2[C@H](c3cc(F)cc(F)c3)CCN2CC12CCN(c1ncc3c(n1)CCCC3)CC2` [Example 1.32, (S)-7′-(3,5-difluorophenyl)-1-(5,6,7,8-tetrahydroquinazolin-2-yl)dihydro-1′H,3′H,5′H-spiro[piperidine-4,2′-pyrazolo[1,2-a]pyrazol]-1′-one], the concentration for a half-maximal effect (EC50) came to 288 nM.
In the case of `O=C1N2[C@H](c3cc(F)cc(F)c3)CCN2CC12CCN(c1ccc(Cl)nn1)CC2` [Example 1.34, (S)-1-(6-chloropyridazin-3-yl)-7′-(3,5-difluorophenyl)dihydro-1′H,3′H,5′H-spiro[piperidine-4,2′-pyrazolo[1,2-a]pyrazol]-1′-one], the EC50 was 457 nM.
The result for `O=C1N2[C@H](c3cc(F)cc(F)c3)CCN2CC12CCN(c1cc(-c3ccccc3)ncn1)CC2` [Example 1.35, (S)-7′-(3,5-difluorophenyl)-1-(6-phenylpyrimidin-4-yl)dihydro-1′H,3′H,5′H-spiro[piperidine-4,2′-pyrazolo[1,2-a]pyrazol]-1′-one] reads 15 nM.
`N#Cc1ccc(N2CCC3(CC2)CN2CC[C@@H](c4cc(F)cc(F)c4)N2C3=O)nn1` [Example 1.37, (S)-6-(7′-(3,5-difluorophenyl)-1′-oxodihydro-1′H,3′H,5′H-spiro[piperidine-4,2′-pyrazolo[1,2-a]pyrazol]-1-yl)pyridazine-3-carbonitrile]: the EC50 came out at 473 nM.
Take `Cc1c(Cl)ncnc1N1CCC2(CC1)CN1CC[C@@H](c3cc(F)cc(F)c3)N1C2=O` [Example 1.38, (S)-1-(6-chloro-5-methylpyrimidin-4-yl)-7′-(3,5-difluorophenyl)dihydro-1′H,3′H,5′H-spiro[piperidine-4,2′-pyrazolo[1,2-a]pyrazol]-1′-one]: the EC50 turned out to be 20 nM.
Take `O=C1N2[C@H](c3cc(F)cc(F)c3)CCN2CC12CCN(c1ccc(C(F)(F)F)cn1)CC2` [Example 1.39, (S)-7′-(3,5-difluorophenyl)-1-(5-(trifluoromethyl)pyridin-2-yl)dihydro-1′H,3′H,5′H-spiro[piperidine-4,2′-pyrazolo[1,2-a]pyrazol]-1′-one]: the concentration giving a half-maximal response (EC50) came out at 77 nM.
Regarding `O=C1N2[C@H](c3cc(F)cc(F)c3)CCN2CC12CCN(c1cncc(Cl)n1)CC2` [Example 1.40, (S)-1-(6-chloropyrazin-2-yl)-7′-(3,5-difluorophenyl)dihydro-1′H,3′H,5′H-spiro[piperidine-4,2′-pyrazolo[1,2-a]pyrazol]-1′-one], the EC50 was 407 nM.
Consider `O=C1N2[C@H](c3cc(F)cc(F)c3)CCN2CC12CCN(c1cnccn1)CC2` [Example 1.41, (S)-7′-(3,5-difluorophenyl)-1-(pyrazin-2-yl)dihydro-1′H,3′H,5′H-spiro[piperidine-4,2′-pyrazolo[1,2-a]pyrazol]-1′-one], for which the EC50 was determined as 308 nM.
Regarding `O=C1N2[C@H](c3cc(F)cc(F)c3)CCN2CC12CCN(c1cnc(Cl)cn1)CC2` [Example 1.42, (S)-1-(5-chloropyrazin-2-yl)-7′-(3,5-difluorophenyl)dihydro-1′H,3′H,5′H-spiro[piperidine-4,2′-pyrazolo[1,2-a]pyrazol]-1′-one], the EC50 amounted to 86 nM.
As to `Cc1ncc(Cl)nc1N1CCC2(CC1)CN1CC[C@@H](c3cc(F)cc(F)c3)N1C2=O` [Example 1.43, (S)-1-(6-chloro-3-methylpyrazin-2-yl)-7′-(3,5-difluorophenyl)dihydro-1′H,3′H,5′H-spiro[piperidine-4,2′-pyrazolo[1,2-a]pyrazol]-1′-one], the EC50 stood at 876 nM.
For the molecule `Cc1cc(N2CCC3(CC2)CN2CC[C@@H](c4cc(F)cc(F)c4)N2C3=O)nc(C(F)(F)F)n1` [Example 1.44, (S)-7′-(3,5-difluorophenyl)-1-(6-methyl-2-(trifluoromethyl)pyrimidin-4-yl)dihydro-1′H,3′H,5′H-spiro[piperidine-4,2′-pyrazolo[1,2-a]pyrazol]-1′-one], the half-maximal effective concentration (EC50) was determined as 274 nM.
As for `Cc1nccc(N2CCC3(CC2)CN2CC[C@@H](c4cc(F)cc(F)c4)N2C3=O)n1` [Example 1.45, (S)-7′-(3,5-difluorophenyl)-1-(2-methylpyrimidin-4-yl)dihydro-1′H,3′H,5′H-spiro[piperidine-4,2′-pyrazolo[1,2-a]pyrazol]-1′-one], the EC50 was determined as 176 nM.
`O=C1N2[C@H](c3cc(F)cc(F)c3)CCN2CC12CCN(c1ccnc(C3CC3)n1)CC2` [Example 1.46, (S)-1-(2-cyclopropylpyrimidin-4-yl)-7′-(3,5-difluorophenyl)dihydro-1′H,3′H,5′H-spiro[piperidine-4,2′-pyrazolo[1,2-a]pyrazol]-1′-one]: the concentration giving a half-maximal response (EC50) was 59 nM.
For `CC(C)c1nc(Cl)cc(N2CCC3(CC2)CN2CC[C@@H](c4cc(F)cc(F)c4)N2C3=O)n1` [Example 1.47, (S)-1-(6-chloro-2-isopropylpyrimidin-4-yl)-7′-(3,5-difluorophenyl)dihydro-1′H,3′H,5′H-spiro[piperidine-4,2′-pyrazolo[1,2-a]pyrazol]-1′-one], the EC50 came out at 153 nM.
Next, `Cc1cc(N2CCC3(CC2)CN2CC[C@@H](c4cc(F)cc(F)c4)N2C3=O)nc(Cl)n1` [Example 1.48, (S)-1-(2-chloro-6-methylpyrimidin-4-yl)-7′-(3,5-difluorophenyl)dihydro-1′H,3′H,5′H-spiro[piperidine-4,2′-pyrazolo[1,2-a]pyrazol]-1′-one]: 144 nM.
Consider `CC(C)c1nccc(N2CCC3(CC2)CN2CC[C@@H](c4cc(F)cc(F)c4)N2C3=O)n1` [Example 1.49, (S)-7′-(3,5-difluorophenyl)-1-(2-isopropylpyrimidin-4-yl)dihydro-1′H,3′H,5′H-spiro[piperidine-4,2′-pyrazolo[1,2-a]pyrazol]-1′-one], for which the concentration for a half-maximal effect (EC50) is 295 nM.
`N#Cc1ccc(N2CCC3(CC2)CN2CC[C@@H](c4cc(F)cc(F)c4)N2C3=O)nc1` [Example 1.50, (S)-6-(7′-(3,5-difluorophenyl)-1′-oxodihydro-1′H,3′H,5′H-spiro[piperidine-4,2′-pyrazolo[1,2-a]pyrazol]-1-yl)nicotinonitrile]: the EC50 was found to be 64 nM.
Next, `N#Cc1c(F)c(F)nc(N2CCC3(CC2)CN2CC[C@@H](c4cc(F)cc(F)c4)N2C3=O)c1F` [Example 1.51, (S)-2-(7′-(3,5-difluorophenyl)-1′-oxodihydro-1′H,3′H,5′H-spiro [piperidine-4,2′-pyrazolo[1,2-a]pyrazol]-1-yl)-3,5,6-trifluoroisonicotinonitrile]: 189 nM.

The values above are taken from patent US20240425524A1, “SPIROTRICYCLE RIPK1 INHIBITORS AND METHODS OF USES THEREOF” (Merck Sharp & Dohme LLC, priority 2021, published 2024).
